Assay results taken from patent publication US10202386B2, “Pyrrolo[3,2-D]pyrimidine derivatives as inducers of human interferon” (GlaxoSmithKline Intellectual Property (No.2) Limited, priority 2014, dated 2019).
Counter-ions that a name gives are not always drawn.

Key:
Format in all cases: cell-based
IFN-α [1] = test: Induction of Interferon-α using fresh human peripheral blood mononuclear cells (PBMCs); settings: PBMC, three donors, 24 hr incubation, response as % of 2 μM resiquimod control, read-out: mean pEC50 for IFN-α (converted)
Procedure: (§1) Assay for the Induction of Interferon-α and TNF-α Using Fresh Human Peripheral Blood Mononuclear Cells (PBMCs)
(§2) Compounds were dispensed by at 100× the required concentration in DMSO (1 uL/well in a flat bottom 96-well cell culture plate). Each compound was assayed in duplicate for each donor. Each plate contained a dilution series of the TLR7/8 agonist resiquimod as standard and Column 11 contained 1 μL of 200 μM resiquimod (giving a 2 μM final concentration, used to define the approximate maximal response to resiquimod).
(§3) Blood samples from three human donors were collected into sodium heparin (10 U/ml). 25 mL volumes of whole blood were overlaid onto 15 mL Histopaque in Leucosep tubes which were centrifuged at 400 g for 30 min and the band at the plasma/histopaque interface carefully removed into a sterile 50 mL conical tube. The volume in the tube was made up to 50 mL with sterile DPBS (Dulbecco's phosphate buffered saline, —CaCl2/MgCl2) and centrifuged at 300 g for 10 min. The cell pellet was resuspended in 20 mL of media (RPMI 1640 (Low endotoxin) supplemented with 10% v/v foetal calf serum (FCS, low endotoxin) 100 U/mL penicillin G, 100 μg/mL streptomycin, 10 mM L-glutamine and 1× non-essential amino acids), and the cells counted using the Nucleoview 3000 (Chemometec, Via-1 Cassette). The PBMCs concentration was adjusted to give a final concentration of 2×10^6/mL and 100 uL of this cells suspension was added to wells containing 1 μL of diluted test compound.
(§4) The cell preparations were incubated for 24 hr (37° C., 95% air, 5% CO2) after which a sample of the supernatant was removed using the Biomek FX and assayed for both IFN-α and TNF-α using the MSD (Mesoscale Discovery) electrochemiluminescence assay platform. The IFN-α assay was carried out similarly to that described above. The TNF-α assay was carried out as per kit instructions (Cat No K111BHB).
(§5) Cytokine released was expressed as a percentage of the 2 μM resiquimod control (column 11). This percentage was plotted against compound concentration and the pEC50 for the response determined by non-linear least squares curve fitting. For the IFN-α responses generally a 4 parameter logistic model was selected. For the TNF-α responses where a clear maximum response was obtained (i.e. a well defined plateau in the response was observed) then a 4 parameter model was generally used. If the upper asymptote of the curve wasn't well defined then the curve fitting was generally constrained to a maximal response of 100% (i.e. to the response to 2 μM resiquimod) or to the response of the highest concentration tested if this was greater than the resiquimod response. Some curves were bell shaped for one or both cytokines and the cytokine data on the down slope of the bell shaped response (i.e. concentrations above those giving the maximal response) were generally excluded from the fit, usually with the exception of the concentration immediately above the peak response. Curve fitting thus concentrated on the up slope of the dose response curve.

TNF-α [2] = test: Induction of TNF-α using fresh human peripheral blood mononuclear cells (PBMCs); settings: PBMC, three donors, 24 hr incubation, response as % of 2 μM resiquimod control, read-out: mean pEC50 for TNF-α (converted)
Procedure: as §1, §2, §3, §4, §5

IFN-α [3] = test: Induction of Interferon-α using fresh human whole blood (WB); settings: three donors, overnight incubation, response as % of 2 μM resiquimod control, read-out: mean pEC50 for IFN-α (converted)
Procedure: (§6) Assay for the Induction of Interferon-α and TNF-α Using Fresh Human Whole Blood (WB)
(§7) Compounds were prepared at 100× required concentration in DMSO in flat-bottom microtitre plates at a volume of 1.5 μL. Columns 1-10 contained a 1 in 4 serial dilution of the test compound. Included on each plate was a serial dilution of the TLR7/8 agonist resiquimod as a standard and Column 11 contained 1.5 μl of 200 μM resiquimod (giving a 2 μM final concentration, used to define the approximate maximal response to resiquimod). Each compound was assayed in duplicate for each donor.
(§8) Blood samples from three human donors were collected into sodium heparin (10 U/ml). 150 μl of whole Blood was dispensed into Col 1 to 11 of assay plates containing 1.5 μl of test compound or standard in DMSO. Plates were placed in an incubator overnight (37° C., 95% air, 5% CO2). Following the overnight incubation, plates were removed from the incubator & mixed on an orbital shaker for approximately 1 minute. 100 μl of 0.9% saline was added to each well and the plates mixed again on an orbital shaker. Plates were then centrifuged (2500 rpm, 10 mins), after which a sample of plasma was removed using a Biomek FX and assayed for both IFN-α and TNF-α using the MSD (Mesoscale Discovery) electrochemiluminescence assay platform. The IFN-α assay was carried out similarly to that described above. The TNF-α assay was carried out as per kit instructions (Cat No K111BHB).
as §5, with “IFN-α responses,” for “IFN-α responses”

TNF-α [4] = test: Induction of TNF-α using fresh human whole blood (WB); settings: three donors, overnight incubation, response as % of 2 μM resiquimod control, read-out: mean pEC50 for TNF-α (converted)
Procedure: as §6, §7, §8
as §5, with “IFN-α responses,” for “IFN-α responses”

| SMILES | EC50 (IFN-α [1]) | EC50 (TNF-α [2]) | EC50 (IFN-α [3]) | EC50 (TNF-α [4]) |
| --- | --- | --- | --- | --- |
| Cc1nc(N)c2[nH]c(C)c(CCCCCCN3CCCCC3)c2n1 [Example 1, 2,6-Dimethyl-7-(6-(piperidin-1-yl)hexyl)-5H-pyrrolo[3,2-d]pyrimidin-4-amine] | 0.501 to 3.98 µM | ≥ 50.1 µM | ≥ 2 µM | ≥ 50.1 µM |
| Cc1nc(N)c2[nH]c(C)c(CCCCCN3CCCC3)c2n1 [Example 2, 2,6-Dimethyl-7-(5-(pyrrolidin-1-yl)pentyl)-5H-pyrrolo[3,2-d]pyrimidin-4-amine maleate] | 0.501 to 3.98 µM | ≥ 50.1 µM | ≥ 2 µM | ≥ 50.1 µM |
| Cc1nc(N)c2[nH]c(C)c(CCCCCN(CCO)CCO)c2n1 [Example 3, 2,2′-((5-(4-Amino-2,6-dimethyl-5H-pyrrolo[3,2-d]pyrimidin-7-yl)pentyl)azanediyl)diethanol formate] | 0.501 to 3.98 µM | ≥ 50.1 µM | ≥ 2 µM | ≥ 50.1 µM |
| Cc1nc(N)c2[nH]c(C)c(CCCCCCN(CCO)CCO)c2n1 [Example 4, 2,2′-((6-(4-Amino-2,6-dimethyl-5H-pyrrolo[3,2-d]pyrimidin-7-yl)hexyl)azanediyl)diethanol formate] | 0.501 to 3.98 µM | ≥ 50.1 µM | ≥ 2 µM | ≥ 50.1 µM |

Next, values leading:

| EC50 (IFN-α [1]) | EC50 (TNF-α [2]) | EC50 (IFN-α [3]) | EC50 (TNF-α [4]) | SMILES |
| --- | --- | --- | --- | --- |
| 0.501 to 3.98 µM | ≥ 50.1 µM | ≥ 2 µM | ≥ 50.1 µM | COCCN(CCO)CCCCCCc1c(C)[nH]c2c(N)nc(C)nc12 [Example 5, 2-((6-(4-Amino-2,6-dimethyl-5H-pyrrolo[3,2-d]pyrimidin-7-yl)hexyl)(2-methoxyethyl)amino)ethanol] |
| 0.501 to 3.98 µM | ≥ 50.1 µM | ≥ 2 µM | ≥ 50.1 µM | COCCN(CCCCCCc1c(C)[nH]c2c(N)nc(C)nc12)CCOC [Example 6, 7-(6-(bis(2-Methoxyethyl)amino)hexyl)-2,6-dimethyl-5H-pyrrolo[3,2-d]pyrimidin-4-amine] |
| 0.501 to 3.98 µM | ≥ 50.1 µM | ≥ 2 µM | ≥ 50.1 µM | Cc1nc(N)c2[nH]c(C)c(CCCCCCNCCO)c2n1 [Example 7, 2-((6-(4-Amino-2,6-dimethyl-5H-pyrrolo[3,2-d]pyrimidin-7-yl)hexyl)amino)ethanol] |
| 0.501 to 3.98 µM | ≥ 50.1 µM | ≥ 2 µM | ≥ 50.1 µM | Cc1nc(N)c2[nH]c(C)c(CCCCCCN3C[C@H](O)C[C@H](O)C3)c2n1 [Example 8, (3R,5S)-1-(6-(4-amino-2,6-dimethyl-5H-pyrrolo[3,2-d]pyrimidin-7-yl)hexyl)piperidine-3,5-diol] |
| 0.501 to 3.98 µM | ≥ 50.1 µM | ≥ 2 µM | ≥ 50.1 µM | Cc1nc(N)c2[nH]c(C)c(CCCCCCN3C[C@H](O)C[C@@H](O)C3)c2n1 [Example 9, (3R,5R)-1-(6-(4-Amino-2,6-dimethyl-5H-pyrrolo[3,2-d]pyrimidin-7-yl)hexyl)piperidine-3,5-diol] |
|  |  | ≥ 2 µM | ≥ 50.1 µM | Cc1nc(N)c2[nH]c(C)c(CCCCCCN(C)C)c2n1 [Example 10, 7-(6-(Dimethylamino)hexyl)-2,6-dimethyl-5H-pyrrolo[3,2-]pyrimidin-4-amine] |
